Measurements reported in patent publication US9468610B2, “1-aminocyclohexane derivatives for the treatment of hearing loss” (MERZ PHARMA GmbH & CO. KGaA, priority 2007, dated 2016).

How the values were obtained:
[1] = test system: subjects with diagnosed hearing loss; assay: Double blind placebo controlled pilot trial of neramexane for treatment of hearing loss (Example 1); type: in vivo, human; settings: neramexane mesylate up to 75 mg/day, modified release tablets, 16 weeks, versus placebo
Experimental: A hearing threshold level may be defined as the average of the pure tone hearing threshold levels at testing frequencies of 0.25, 0.5, 1, 2 and 4 kHz.
The primary objective of this study is to investigate the safety and efficacy of neramexane mesylate at daily doses of up to 75 mg in the treatment of hearing loss in comparison to placebo.
In order to be eligible to participate in the study, patients must meet the following criteria: • Male or female subjects aged between 18 and 80 years with diagnosed hearing loss of at least mild degree • Signed written informed consent • Female subjects must be at least 2 years post-menopausal or surgically sterile. Women of childbearing potential have to agree to use at least one effective method of contraception.
Visit 1 (screening): After signing the consent form, the subject undergoes a neurological and otological evaluation. […] Patient eligibility for study is evaluated via a check of inclusion/exclusion criteria.
Visit 2 (baseline): The subjects are asked about adverse events and changes in concomitant medication/disease, which events/changes are documented. Subject is evaluated for study eligibility based on a review of the inclusion/exclusion criteria. […]
Primary Outcome • Change from baseline in hearing threshold level of left/right ear (dB) calculated as average of the pure tone hearing level threshold levels at 0.25, 0.5, 1, 2 and 4 kHz. […]

[2] = test system: patients suffering from persistent, subjective uni- or bilateral tinnitus; assay: Double-blind, multicenter, randomized, placebo-controlled, parallel-group study in tinnitus patients; pure tone audiogram (Example 2); type: in vivo, human; settings: 50 mg-dose group (25 mg immediate release tablets twice daily), after 16 weeks treatment, compared to placebo; FIG. 1
Experimental: Participants received either neramexane mesylate (e.g. 50 mg, as 25 mg immediate release tablets given twice daily) or placebo twice daily for 16 weeks. Neramexane mesylate was uptitrated in weekly steps of 12.5 or 25 mg during a 4-week uptitration period preceding the fixed-dose 12-week treatment period. Treatment was followed by a four week follow-up period.

CC1(C)CC(C)(C)CC(C)(N)C1 [neramexane, 1-amino-1,3,3,5,5-pentamethylcyclohexane]
Secondary outcomes: high frequency hearing threshold, individual frequencies, responders, patient-reported outcome, hearing impairment grade [1]: improvement | Primary outcomes: change from baseline in hearing threshold level of left/right ear ([1]; average of pure tone thresholds at 0.25, 0.5, 1, 2 and 4 kHz): improvement | Individual frequencies (hearing thresholds) on a pure tone audiogram (air conduction), secondary efficacy analysis [2]: trend for a modest treatment effect compared to placebo
